Reference: patent US20120053155A1, “SYSTEM AND METHOD FOR REVERTING ANTIBIOTIC TOLERANCE OF BACTERIAL PERSISTER CELLS” (Syracuse University, priority 2010, published 2012)

Key:
[1] = tested on: Vibrio harveyi BB886 quorum sensing based on homoserine lactones; test: Quorum sensing assay (bioluminescence of reporter strain); format: cell-based; conditions: 10 μg/mL; V. harveyi BB886; bioluminescence at 5 h after inoculation
Method: To understand the effects of BFs on quorum sensing, the reporter strain Vibrio harveyi BB886 was used to monitor the quorum sensing based on homoserine lactones. Briefly, an overnight culture of this strain was diluted by 1:5000 in autoinducer bioassay medium with BFs supplemented at different concentrations. The bioluminescence was measured at 5 h after inoculation.

P. aeruginosa PAO1 = test: Effect on persister formation in subcultures (CFU after Cip treatment); format: cell-based, Pseudomonas aeruginosa
Method: A P. aerugionsa PAO1 overnight culture was sub-cultured into 6 tubes with 5 mL fresh LB medium in each with the optical density at 600 nm (OD600) adjusted to 0.05. Each tube contained different concentrations of BF8 (0, 5, 10, 30, 50 and 100 μg/mL) diluted from a 60 mg/mL stock solution. The amount of ethanol was adjusted to be the same for all samples to eliminate solvent effects. After 5 h of incubation, 2 mL sample from each tube was washed and plated on LB agar plates for counting colony forming units (“CFU”); while 3 mL of sample was added with 200 μg/mL Cip and incubated for 3.5 h to count the numbers of cells that remained as persisters.
To compare with the effects of sugars known to promote antibiotic uptake by persisters, the above experiment was repeated using 10 mM glucose and mannitol instead of BF8.

[2] = tested on: P. aeruginosa PAO1 persister cells; test: Viability of isolated persister cells (CFU); format: cell-based, Pseudomonas aeruginosa; conditions: up to 2 μg/mL; 0.85% NaCl buffer
Method: (§1) Pseudomonas aeruginosa PAO1 was routinely grown in Luria-Bertani (LB) medium. To isolate persister cells, an overnight culture was incubated for 18 h at 37° C. with shaking at 200 rpm, washed twice with 0.85% NaCl buffer, resuspended in the same buffer and then treated with 200 μg/mL Cip for 3.5 h to lyse the regular cells. The remaining persister cells were then harvested by centrifugation at 13,200 rpm for 3 min at room temperature and then treated with or without furanones as described below.
(§2) To obtain persisters, 3 mL of overnight culture of P. aeruginosa PAO1 was incubated for 3.5 h with 200 μg/mL Cip to kill all regular cells. The remaining persisters were washed twice with and resuspended in 0.85% NaCl buffer with 1:50 dilution. Samples were taken immediately to count the CFUs of persisters. Then, each 5 mL of 0.85% NaCl buffer containing persister cells was treated for 3.5 h with 0, 0.1, 0.5, 1 and 2 μg/mL of BF8. The amount of ethanol was adjusted to be the same for all samples. CFUs of treated persister cells were counted to understand if BF8 has any effects on the viability of persister cells.

[3] = tested on: P. aeruginosa PAO1 persister cells; test: Antibiotic (Cip) susceptibility of isolated persister cells; format: cell-based, Pseudomonas aeruginosa; conditions: for reverting antibiotic tolerance of persisters: different concentrations, 0.85% NaCl buffer, Cip
Method: as §1, §2
The persister cells treated with BF8 as described above were then treated again with 200 μg/mL Cip to understand if any persister cells restored susceptibility to Cip. The CFUs were counted as described above.

[4] = tested on: P. aeruginosa PAO1 persister cells; test: DNA microarray analysis of gene expression in persister cells; format: cell-based, Pseudomonas aeruginosa; conditions: 1 μg/mL, 1 h
Method: Persister cells were harvested from a 100 mL 18-h culture of P. aeruginosa PAO1. The isolated persister cells were resuspended in 0.85% NaCl buffer supplemented with 1 μg/mL (3.7 μM) BF8 or with the same amount of ethanol (4.17 μL to eliminate the solvent effect as the control). After incubation at 37° C. for 1 h, cells were collected by centrifugation at 10,000 rpm for 5 minutes at 4° C., transferred to 2 mL pre-cooled microcentrifuge tubes and frozen in an ethanol-dry ice bath. The cell pellets were stored at −80° C. until RNA isolation.
The RNeasy Mini Kit (Qiagen) was used to isolate total RNA. First, the cells were lysed by beating at 4,800 oscillations/min using a mini-bead beater (Biospec Products Inc., Bartlesville, Okla.) with 0.5-mm glass beads, 900 uL RLT buffer and 1% 2-Mercaptoethanol. The total RNA was extracted following the manufacture's protocol with additional wash with RW1 buffer, RPE buffer and DNase treatment (RNase-Free DNase Set, Qiagen). The RNA samples were sent to the DNA microarray Facilities at SUNY Upstate Medical University for microarray hybridization.

## CC1=C(Br)/C(=C/Br)OC1=O [BF8]
[1]
  response of the reporter strain to homoserine lactones: completely eliminated
P. aeruginosa PAO1; 100 μg/mL BF8, 5 h incubation, 200 μg/mL Cip
  cells persistent (retaining antibiotic tolerance) after treatment: 1.6%
P. aeruginosa PAO1; 100 μg/mL, 5 h incubation in LB medium, 200 μg/mL Cip 3.5 h
  reduction of the number of persister cells formed compared to the furanone-free control: up to 100 times
[2]
  killing effects on persister cells (viability): did not exhibit any significant killing effects
[3]; 2 μg/mL, then 200 μg/mL Cip
  persister cells rendered sensitive to Cip: around 90%
[3]; 0.5, 1 and 2 μg/mL, then 200 μg/mL Cip
  susceptibility of persisters to Cip: more susceptible to Cip
[4]; gene PA0182 (3-ketoacyl-(acyl-carrier-protein) reductase)
  Expression Ratio PA0182: 97.1
[4]; gene PA0422 (hypothetical protein)
  Expression Ratio PA0422: 4.2
[4]; gene PA0565 (hypothetical protein)
  Expression Ratio PA0565: 12.8
[4]; gene PA0741 (hypothetical protein)
  Expression Ratio PA0741: 16.5
[4]; gene PA1127 (oxidoreductase)
  Expression Ratio PA1127: 3.4
[4]; gene PA1210 (hypothetical protein)
  Expression Ratio PA1210: 21
[4]; gene PA1285 (transcriptional regulator)
  Expression Ratio PA1285: 4.4
[4]; gene PA1334 (oxidoreductase)
  Expression Ratio PA1334: 227.6
[4]; gene PA1374 (hypothetical protein)
  Expression Ratio PA1374: 3.4
[4]; gene PA1470 (short chain dehydrogenase)
  Expression Ratio PA1470: 4.1
[4]; gene PA2196 (transcriptional regulator)
  Expression Ratio PA2196: 4.8
[4]; gene PA2378 (aldehyde dehydrogenase)
  Expression Ratio PA2378: 3.1
[4]; gene PA2535 (oxidoreductase)
  Expression Ratio PA2535: 9
[4]; gene PA2575 (hypothetical protein)
  Expression Ratio PA2575: 9.1
[4]; gene PA2580 (hypothetical protein)
  Expression Ratio PA2580: 8.3
[4]; gene PA2610 (hypothetical protein)
  Expression Ratio PA2610: 7.2
[4]; gene PA2691 (hypothetical protein)
  Expression Ratio PA2691: 3.7
[4]; gene PA2839 (hypothetical protein)
  Expression Ratio PA2839: 11
[4]; gene PA2931 (CifR)
  Expression Ratio PA2931: 11
[4]; gene PA2932_morB (morphinone reductase)
  Expression Ratio PA2932_morB: 64.9
[4]; gene PA3133 (transcriptional regulator)
  Expression Ratio PA3133: 3.5
[4]; gene PA3223_acpD (AzoR3, azoreductase 3)
  Expression Ratio PA3223_acpD: 4.8
[4]; gene PA3240 (hypothetical protein)
  Expression Ratio PA3240: 14.4
[4]; gene PA3523 (RND efflux membrane fusion protein precursor)
  Expression Ratio PA3523: 9.6
[4]; gene PA3920 (metal transporting P-type ATPase)
  Expression Ratio PA3920: 3.9
[4]; gene PA4167 (2,5-diketo-D-gluconate reductase B)
  Expression Ratio PA4167: 510.6
[4]; gene PA4173 (hypothetical protein)
  Expression Ratio PA4173: 36.7
[4]; gene PA4878 (transcriptional regulator)
  Expression Ratio PA4878: 4.2

## CC1=CC(=C(Br)Br)OC1=O [BF9]
[3]
  reverting antibiotic tolerance of persisters: revert antibiotic tolerance in a dose dependent manner

## O=C1OC(=C(Br)Br)C=C1C(Br)Br [BF10]
[3]
  reverting antibiotic tolerance of persisters: revert antibiotic tolerance in a dose dependent manner

## O=C1OC(=C(Br)Br)C=C1CBr [BF11]
[3]
  reverting antibiotic tolerance of persisters: revert antibiotic tolerance in a dose dependent manner

## CC1=C(Br)C(C(Br)Br)OC1=O (centres unmarked) [BF14]
[3]
  reverting antibiotic tolerance of persisters: revert antibiotic tolerance in a dose dependent manner
